Measured values taken from patent US20040224844A1, “Use of hydroxyaromatic compounds as safeners” (Bayer CropScience GmbH, priority 2003, published 2004).

Tests used:
Type in all cases: in vivo
[1] = system: Zea mays (corn), cv. 'Lorenzo'; test: Pre-emergence application of herbicide and safener by the tank mix method: crop damage
Method: (§1) Seeds of various crop plants and weed species were sown in sandy loam soil in plastic pots of a diameter of 13 cm and covered with a layer of sandy loam of a thickness of about 1 cm. Herbicides and safeners in the form of liquid (for example emulsion concentrates) or dry (for example water-dispersible powders) formulations were diluted with deionized water to the required concentration and applied to the surface of the soil with a spray bar using a water application rate of 300 liters per hectare. In the experiment shown below, the safeners were used as 20 percent strength water-dispersible powders and the herbicide isoxaflutole was used as an aqueous suspension concentrate (see table 1.1.1).
(§2) The pots were placed in a greenhouse under favorable growth conditions. Visual scoring of the herbicidal action was carried out four weeks after the herbicide application. Evaluation was carried out on a percentage basis by comparison with untreated control plants (0%=no noticeable effect compared with the untreated plant, 100%=treated plant dies).

Chenopodium album = test: Pre-emergence application of herbicide and safener by the tank mix method: herbicidal action; conditions: four weeks
Method: as §1, §2

Setaria viridis [2] = test: as above; conditions: four weeks
Method: as §1, §2

[3] = system: Zea mays (corn), cv. 'Lorenzo'; test: Post-emergence application of herbicide and safener by the tank mix method: crop damage; conditions: for Safener action as % damage reduction in crop plants: ZEAMA
Source text: (§3) Seeds of various crop plants and weed species were sown in sandy loam soil in round plastic pots of a diameter of 13 cm and covered with a layer of sandy loam of a thickness of about 1 cm. The pots were placed in a greenhouse under favorable growth conditions for a period of about two to three weeks, allowing the plants to reach a growth stage of 2 to 4 leaves. The herbicides in the form of liquid (for example emulsion concentrates) or dry (for example water-dispersible powders) formulations were mixed with a standard additive (based on rapeseed oil methyl ester), diluted with deionized water to the required concentrations and applied to the green parts of the plants and the uncovered part of the soil surface with a spray bar using a water application rate of 300 liters per hectare. In the experiment shown below, safener and the herbicide foramsulfuron were in each case used as 20 percent strength water-dispersible powder (results see table 1.2.1).
as §2

Amaranthus retroflexus = test: Post-emergence application of herbicide and safener by the tank mix method: herbicidal action; conditions: four weeks
Source text: as §3, §2

Setaria viridis [4] = test: as above; conditions: four weeks
Source text: as §3, §2

[5] = system: Glycine max (soybean), cv. 'Lambert'; test: Pre-emergence application of herbicide after seed dressing with safener; conditions: for Safener action as % damage reduction in crop plants: GLXMA
Method: (§4) The number of crop plant seeds required for each application rate of safener was calculated. Sufficient seeds were weighed out into glass bottles having a screw-on lid. The volume of the glass bottles was approximately twice that of the seeds weighed out.
(§5) The safeners were formulated as 20 percent strength water-dispersible powders. These formulations were weighed out to give the required application rates (g of a.i./kg of seed). The samples were added to the seeds in the glass containers, and sufficient water to form a suitable seed dressing was then added. The glass bottles were closed and then mounted in an overhead shaker (which turns the bottles at moderate speed for a period of up to one hour) so that the seeds were uniformly covered with the seed dressing. The bottles were opened and the seeds were ready for use in pre-emergence or post-emergence experiments, as described below.
(§6) The seeds which had been treated with safeners and untreated seeds as controls were sown in sandy loam soil in round plastic pots of a diameter of 13 cm and covered with a layer of sandy loam of a thickness of about 1 cm. The herbicides in the form of liquid (for example emulsion concentrates) or dry (for example water-dispersible powders) formulations were diluted with deionized water to the required concentrations and applied to the surface of the soil with a spray bar using a water application rate of 300 liters per hectare. In the two experiments shown below (results see tables 2.2.1 and 2.2.2), the herbicide isoxaflutole was used as an aqueous suspension concentrate.
as §2

[6] = system: Zea mays (corn), cv. 'Lorenzo'; test: as above; conditions: for Safener action as % damage reduction in crop plants: ZEAMA
Method: as §4, §5, §6, §2

[7] = system: Zea mays (corn), cv. 'Lorenzo'; test: Post-emergence application of herbicide after seed dressing with safener; conditions: for Safener action as % damage reduction in crop plants: ZEAMA
Method: as §4, §5
as §3, with “The seeds treated with safener” for “Seeds of various crop plants”, “untreated seeds” for “weed species”, “2.3.1).” for “1.2.1).”
as §2, with “base” for “basis”

[8] = safener 250 g of a.i./ha + herbicide H1 (isoxaflutole) 100 g of a.i./ha, pre-emergence tank mix
[9] = safener 250 g of a.i./ha + herbicide H2 (foramsulfuron) 40 g of a.i./ha, post-emergence tank mix
[10] = seed dressing with safener 1 g of a.i./kg of seed, herbicide H1 (isoxaflutole) 100 g of a.i./ha pre-emergence
[11] = seed dressing with safener 1 g of a.i./kg of seed, herbicide H2 (foramsulfuron) 40 g of a.i./ha post-emergence
[12] = seed dressing with safener 1 g of a.i./kg of seed, herbicide H1 (isoxaflutole) 100 g of a.i./ha pre-emergence, four weeks
[13] = herbicide H1 (isoxaflutole) 100 g of a.i./ha alone, no safener, pre-emergence
[14] = herbicide H2 (foramsulfuron) 40 g of a.i./ha alone, no safener, post-emergence

Compound	Safener action as % damage reduction in ZEAMA [1, 8]	Herbicidal action in CHEAL (in %) (Chenopodium album; [8])	Herbicidal action in SETVI (in %) (Setaria viridis [2]; [8])	Safener action as % damage reduction in crop plants [3, 9]	Herbicidal action as % damage in AMARE (Amaranthus retroflexus; [9])	Herbicidal action as % damage in SETVI (Setaria viridis [4]; [9])	Safener action as % damage reduction in crop plants [5, 10]	% damage in GLXMA ([5]; in vivo)	Safener action as % damage reduction in crop plants [6, 10]	% damage in ZEAMA ([6]; in vivo)	Safener action as % damage reduction in crop plants [7, 11]	% damage in ZEAMA ([7]; in vivo)	also measured
O=C(O)c1cc(O)cc(O)c1 [Comp. 1050, 3,5-dihydroxybenzoic acid]	88%	97%	96%	69%	90%	97%	64%	28%	75%	5%	86%	5%	–
COc1cc(C(=O)O)cc(OC)c1O [Comp. 1272, 3,5-dimethoxy-4-hydroxybenzoic acid]	52%	94%	98%	53%	92%	95%	55%	–	50%	–	79%	–	% damage in ZEAMA ([1]; safener 250 g of a.i./ha + herbicide H1 (isoxaflutole) 100 g of a.i./ha, pre-emergence tank mix, visual scoring four weeks after application): 12%; % damage in ZEAMA ([3]; safener 250 g of a.i./ha + herbicide H2 (foramsulfuron) 40 g of a.i./ha, post-emergence tank mix, visual scoring four weeks after application): 15%; % damage in GLXMA [5, 12]: 35%; % damage in ZEAMA [6, 12]: 10%; % damage in ZEAMA ([7]; seed dressing with safener 1 g of a.i./kg of seed, herbicide H2 (foramsulfuron) 40 g of a.i./ha post-emergence, four weeks): 7.5%
CS(=O)(=O)c1cc(C(F)(F)F)ccc1C(=O)c1cnoc1C1CC1 [Herbicide H1, isoxaflutole, reference compound]	–	–	–	–	–	–	–	78%	–	20%	–	–	% damage in ZEAMA ([1]; in vivo): 25%; Herbicidal action in CHEAL (in %) (Chenopodium album; [13]): 94%; Herbicidal action in SETVI (in %) (Setaria viridis [2]; [13]): 96%
COc1cc(OC)nc(NC(=O)NS(=O)(=O)c2cc(NC=O)ccc2C(=O)N(C)C)n1 [Herbicide H2, foramsulfuron, reference compound]	–	–	–	–	–	–	–	–	–	–	–	35%	% damage in ZEAMA ([3]; in vivo): 32%; Herbicidal action as % damage in AMARE (Amaranthus retroflexus; [14]): 90%; Herbicidal action as % damage in SETVI (Setaria viridis [4]; [14]): 93%
